These results are taken from ChEMBL document CHEMBL1201862, “PubChem BioAssay data set” (2004).

Test systems include SK-MEL-5; SW-620; HOP-92; HCT-15; SK-MEL-2; K562; EKVX; KM12; OVCAR-5; MOLT-4; M14; SN12C; UO-31; SF-295; NCI-H460; OVCAR-3; A498.
Test in all cases: growth of human tumour cells (NCI), 48 h

SMILES strings stand for the structures.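 Grown in 96-well plates, cells were treated for 48 hours with each compound at five concentrations. Insufficient inhibition: endpoint recorded as highest concentration tested. GI50: concentration for 50% inhibition of growth.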 Active and inactive are the calls of the source. Rule as the data show it: active = GI50 up to about 1.1 µM and inactive = higher.

Turning to `CCN(CC)c1ccc(C(=C2C=CC(=[N+](CC)CC)C=C2)c2ccccc2)cc1`, the GI50 in the assay on SK-MEL-5 is 0.0166 µM (active); in the assay with SW-620, 0.0291 µM (active); with HOP-92, 0.0338 µM (active); with HCT-15, 0.0483 µM; with SK-MEL-2 it was 0.0279 µM (active); in the assay on K562, 0.0213 µM (active). Also, the GI50 with EKVX was 0.108 µM (active); with KM12, 0.0324 µM (active); in the assay with OVCAR-5, 0.134 µM (active); in the assay on MOLT-4 it was 0.0151 µM (active); in the assay on M14, 0.0163 µM (active); in the assay with SN12C it was 0.0254 µM (active). The GI50 is 0.0366 µM (active) in the assay on UO-31, 0.0248 µM (active) in the assay on SF-295 and 0.0231 µM (active) with NCI-H460.

In the case of `CC(C)N(O)C(=N)c1ccccc1`, the GI50 in the assay with SK-MEL-5, in the assay with SW-620, with HOP-92, with SK-MEL-2, in the assay on EKVX and in the assay with KM12 was > 100 µM (inactive) in each case. The GI50 in the assay with OVCAR-5, with M14, in the assay with SN12C, in the assay on UO-31, with SF-295 and with NCI-H460 was > 100 µM (inactive) throughout.

With `Cc1cc(N(CCC#N)S(C)(=O)=O)ccc1C=O`, the GI50 is > 100 µM (inactive) with SK-MEL-5; > 100 µM (inactive) in the assay on SW-620; over 100 µM in the assay with HCT-15; > 100 µM (inactive) in the assay on OVCAR-3; > 100 µM (inactive) in the assay with SK-MEL-2; > 100 µM (inactive) with K562. Further, the GI50 with A498, with KM12, in the assay on OVCAR-5, in the assay with MOLT-4, in the assay on M14 and in the assay with SN12C was > 100 µM (inactive) throughout. For the same molecule, the GI50 in the assay on UO-31, in the assay with SF-295 and with NCI-H460 was > 100 µM (inactive) in each case.

Regarding `CCOC(=O)/C(=C/c1ccc(Cl)cc1)N(CC)CC`, the GI50 is > 100 µM (inactive) in the assay with SK-MEL-5; > 100 µM (inactive) in the assay on SW-620; 74.1 µM (inactive) in the assay on HOP-92; over 100 µM with HCT-15; > 100 µM (inactive) with SK-MEL-2; > 100 µM (inactive) in the assay on K562. For the same molecule, the GI50 with A498, with EKVX, in the assay with KM12, in the assay with OVCAR-5, with MOLT-4 and in the assay with M14 was > 100 µM (inactive) each time. Further, the GI50 with SN12C, with UO-31, in the assay on SF-295 and with NCI-H460 was > 100 µM (inactive) each time.

As for `CCOC(=O)/C(C#N)=C1\N[C@H](C(=O)OCC)CO1`, the GI50 was > 100 µM (inactive) in the assay with SK-MEL-5; > 100 µM (inactive) in the assay on SW-620; over 100 µM in the assay on HCT-15; > 100 µM (inactive) in the assay with OVCAR-3; 30.4 µM (inactive) with SK-MEL-2; > 100 µM (inactive) in the assay on K562. The GI50 with EKVX, in the assay with KM12, in the assay with OVCAR-5, in the assay with MOLT-4, in the assay with M14 and in the assay on SN12C was > 100 µM (inactive) in each case. For the same molecule, the GI50 in the assay with UO-31, with SF-295 and in the assay on NCI-H460 was > 100 µM (inactive) in each case.

Turning to `CCC(=O)Nc1nc2c(ncn2C2OC(COC(=O)CC)C(OC(=O)CC)C2OC(=O)CC)c(=O)[nH]1` (centres undefined), the GI50 in the assay with SK-MEL-5 is > 100 µM (inactive); in the assay with SW-620, > 100 µM (inactive); with HCT-15 it was over 100 µM; with OVCAR-3, > 100 µM (inactive); with SK-MEL-2, > 100 µM (inactive); with K562, > 100 µM (inactive). Also, the GI50 in the assay on A498, in the assay with EKVX, in the assay with KM12, with OVCAR-5, with MOLT-4 and in the assay with M14 was > 100 µM (inactive) in each case. In addition, the GI50 with SN12C, in the assay with UO-31, with SF-295 and with NCI-H460 was > 100 µM (inactive) throughout.

With `O=c1c2cc(Br)ccc2[nH]c(=S)n1-c1ccc(Br)cc1`, the GI50 was > 100 µM (inactive) in the assay on SW-620; 23 µM (inactive) in the assay on HOP-92; over 100 µM with HCT-15; 52.4 µM (inactive) in the assay with OVCAR-3; 87.7 µM (inactive) in the assay with SK-MEL-2; > 100 µM (inactive) in the assay with K562. The GI50 was > 100 µM (inactive) with A498; > 100 µM (inactive) in the assay on EKVX; > 100 µM (inactive) in the assay on KM12; > 100 µM (inactive) with MOLT-4; 75 µM (inactive) with SN12C; > 100 µM (inactive) in the assay with UO-31. Moreover, the GI50 in the assay with SF-295 was 45.5 µM (inactive); with NCI-H460, 82.8 µM (inactive).

Regarding `CN(C)C(=N/O)/C(=N\O)N(C)C`, the GI50 in the assay with SW-620 is > 100 µM (inactive); with HOP-92, > 100 µM (inactive); in the assay on HCT-15 it was over 100 µM; in the assay on SK-MEL-2, > 100 µM (inactive); with K562, > 100 µM (inactive); with A498 it was > 100 µM (inactive). The GI50 with EKVX, in the assay with KM12, with OVCAR-5, with MOLT-4, with M14 and with SN12C was > 100 µM (inactive) throughout. For the same molecule, the GI50 in the assay with UO-31, in the assay on SF-295 and in the assay on NCI-H460 was > 100 µM (inactive) throughout.

Turning to `O=CCCCC(Sc1ccccc1)Sc1ccccc1`, the GI50 in the assay with SK-MEL-5 is 15.8 µM (inactive); with SW-620, 11.4 µM (inactive); in the assay with HCT-15, 15.7 µM; in the assay with OVCAR-3, 26.2 µM (inactive); with SK-MEL-2, 20.2 µM (inactive); in the assay with K562 it was 14.4 µM (inactive). In addition, the GI50 in the assay with A498 is 38.8 µM (inactive); in the assay on EKVX, 31.1 µM (inactive); in the assay on KM12 it was 33 µM (inactive); with MOLT-4 it was 12.5 µM (inactive); in the assay on M14 it was 22.9 µM (inactive); in the assay on SN12C, 22 µM (inactive). Also, the GI50 in the assay with UO-31 was 14.7 µM (inactive); with SF-295 it was 18.1 µM (inactive); with NCI-H460, > 10 µM (inactive).

For `COC(=O)C(=O)C(C#N)c1ccc(CC#N)cc1` (centres undefined), the GI50 in the assay with SW-620 was > 100 µM (inactive); with HOP-92 it was > 100 µM (inactive); in the assay on HCT-15, over 100 µM; in the assay on OVCAR-3, > 100 µM (inactive); in the assay with SK-MEL-2, > 100 µM (inactive); in the assay with K562, > 100 µM (inactive). Moreover, the GI50 in the assay with EKVX, in the assay with KM12, with MOLT-4, in the assay on M14, with SN12C and in the assay on UO-31 was > 100 µM (inactive) throughout. Further, in the assay on SF-295, the GI50 was > 100 µM (inactive).

Consider `O=[N+]([O-])c1cccc(C2=NN(c3ccccc3)C[N+](c3ccc(Br)cc3)=N2)c1`, for which the GI50 in the assay with SK-MEL-5 was > 100 µM (inactive); with SW-620, > 100 µM (inactive); in the assay with HOP-92 it was 83.2 µM (inactive); with HCT-15, over 100 µM; in the assay on SK-MEL-2 it was 87.3 µM (inactive); with K562, 50.2 µM (inactive). The GI50 with A498 was > 100 µM (inactive); with EKVX, > 100 µM (inactive); with KM12, 73.5 µM (inactive); in the assay with OVCAR-5, > 100 µM (inactive); in the assay with MOLT-4, 35.7 µM (inactive); with M14, 59 µM (inactive). For the same molecule, the GI50 is > 100 µM (inactive) in the assay with SN12C, 96.4 µM (inactive) in the assay with UO-31, 64.9 µM (inactive) with SF-295 and > 100 µM (inactive) in the assay on NCI-H460.

In the case of `COc1ccc(/C=C2\SC(c3ccc(OC)cc3)N(NC(=O)Cc3ccccc3)C2=O)cc1` (centres undefined), the GI50 in the assay with SK-MEL-5 was > 100 µM (inactive); with SW-620, > 100 µM (inactive); in the assay on HOP-92, > 100 µM (inactive); in the assay with HCT-15, over 100 µM; in the assay on SK-MEL-2, > 100 µM (inactive); in the assay with K562 it was 88.1 µM (inactive). For the same molecule, the GI50 in the assay on A498 is > 100 µM (inactive); in the assay with KM12, > 100 µM (inactive); in the assay with OVCAR-5, > 100 µM (inactive); in the assay on MOLT-4, 79.3 µM (inactive); with M14 it was > 100 µM (inactive); in the assay with SN12C, > 100 µM (inactive). The GI50 with UO-31, in the assay with SF-295 and in the assay with NCI-H460 was > 100 µM (inactive) each time.

Take `Cc1nn2c(nc1=O)sc1ccc3ccccc3c12`: the GI50 in the assay with SK-MEL-5 was > 100 µM (inactive); in the assay on SW-620, > 100 µM (inactive); in the assay on HOP-92, > 100 µM (inactive); with HCT-15, over 100 µM; in the assay with OVCAR-3, > 100 µM (inactive); with SK-MEL-2 it was > 100 µM (inactive). Besides, the GI50 in the assay on K562, in the assay with EKVX, in the assay with KM12, in the assay on OVCAR-5, in the assay on MOLT-4 and in the assay on M14 was > 100 µM (inactive) in each case. The GI50 in the assay with SN12C, in the assay with UO-31, with SF-295 and in the assay on NCI-H460 was > 100 µM (inactive) in each case.

Consider `CS(=O)(=O)N(CCC#N)c1ccc(/C=C2\N=C(c3ccccc3Cl)OC2=O)cc1`, for which the GI50 in the assay with SK-MEL-5 was > 100 µM (inactive); in the assay on SW-620, > 100 µM (inactive); with HCT-15, over 100 µM; in the assay with OVCAR-3 it was > 100 µM (inactive); with SK-MEL-2, > 100 µM (inactive); in the assay with K562, > 100 µM (inactive). The GI50 with A498, with EKVX, in the assay on KM12, with OVCAR-5, in the assay on MOLT-4 and in the assay with M14 was > 100 µM (inactive) throughout. The GI50 with SN12C, in the assay with UO-31, in the assay on SF-295 and in the assay with NCI-H460 was > 100 µM (inactive) in each case.
